Measured values taken from PubChem BioAssay (NCI).
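Test compounds were applied to cells in 96-well plates for 48 hours at 5 doses. GI50 is the concentration that inhibits growth by half. TGI is the concentration that stops growth completely.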 *1 amine or outer side, *2 acyl side, *3 side chain or, on linkers, in order; H or OH if unused. Where a SMILES comes first, the peptide text is derived from it. Bridges are numbered along the chain shown (N, C = ends). Roman numbers before positions name the chains, in order. [ ]: non-standard residue; d: D form. Actinocin(9to1) = Cc1c2oc3c(C)ccc(C(=O)[*:1])c3nc-2c(C(=O)[*:2])c(N)c1=O; NMeV = CN[CH](C(=O)O)C(C)C; Sar = CNCC(=O)O

Key:
Assay in all cases: NCI tumour cell line growth inhibition, 48 h
SW-620 colon = test system: SW-620 colon
NCI-H226 lung = test system: NCI-H226 lung
SNB-75 CNS = test system: SNB-75 CNS
UACC-257 melanoma = test system: UACC-257 melanoma
BT-549 breast = test system: BT-549 breast
RPMI-8226 leukemia = test system: RPMI-8226 leukemia
UO-31 renal = test system: UO-31 renal
NCI/ADR-RES ovarian = test system: NCI/ADR-RES ovarian
HCC-2998 colon = test system: HCC-2998 colon
786-0 renal = test system: 786-0 renal

| SMILES | TGI (SW-620 colon) | TGI (NCI-H226 lung) | TGI (SNB-75 CNS) | TGI (UACC-257 melanoma) | TGI (BT-549 breast) | TGI (RPMI-8226 leukemia) | TGI (UO-31 renal) | TGI (NCI/ADR-RES ovarian) | TGI (HCC-2998 colon) | TGI (786-0 renal) | GI50 (SW-620 colon) | GI50 (NCI-H226 lung) | GI50 (SNB-75 CNS) | GI50 (UACC-257 melanoma) | GI50 (BT-549 breast) | GI50 (RPMI-8226 leukemia) | GI50 (NCI/ADR-RES ovarian) | GI50 (HCC-2998 colon) |
| --- | --- | --- | --- | --- | --- | --- | --- | --- | --- | --- | --- | --- | --- | --- | --- | --- | --- | --- |
| NC(=S)Nc1[nH]c(=S)nc2c1SC1=N/C(=C\c3ccco3)C(=O)N12 | > 100 µM | > 100 µM | > 100 µM | > 100 µM | > 100 µM | > 90.6 µM | > 100 µM | > 100 µM | > 50.4 µM | > 100 µM |  |  |  |  |  |  |  |  |
| C#CC(F)(F)[C@]1(O)CC[C@H]2[C@@H]3CCC4=CC(=O)CCC4=C3[C@@H](c3ccc(C(C)=O)cc3)C[C@@]21C | > 100 µM | 71.3 µM | > 100 µM | 88.5 µM | 55.2 µM | 6.25 µM |  | 59 µM | > 100 µM |  | 24.2 µM | 21.7 µM | 3.82 µM | 21.1 µM | 15.5 µM | 0.333 µM | 13.8 µM | 31.2 µM |
| Nc1ccccc1N/C=C\C(=O)C(Cl)(Cl)Cl | 48.1 µM | > 100 µM | 72.2 µM | 64.2 µM | 58.6 µM | 38 µM | 62.6 µM | > 100 µM | 31.7 µM | 28.3 µM |  |  |  |  |  |  |  |  |
| COc1ccc2c(c1)N=C1CSC(c3ccccc3Cl)N1C2 (stereo not given) | 39.5 µM | 50.5 µM | 40.6 µM | 32.7 µM | > 100 µM | 35.3 µM | 1.8 µM | 72.3 µM | 18.1 µM | 31.6 µM |  |  |  |  |  |  |  |  |
| CC[C@H](C)[C@H]1NC(=O)[C@@H](NC(=O)[C@@H](CC(C)C)N(C)CC2CCCN2C(=O)C(C)=O)[C@@H](C)OC(=O)[C@H](Cc2ccc(OC)cc2)N(C)C(=O)C2CCCN2C(=O)[C@H](CC(C)C)NC(=O)[C@@H](C)C(=O)[C@H](C(C)C)OC(=O)C[C@@H]1O (stereo not given in full) | 1.8 µM | 0.0809 µM | 0.0108 µM | 0.0128 µM | 0.0135 µM | 0.00697 µM | 0.0862 µM | 0.231 µM | 0.00958 µM | 0.0118 µM |  |  |  |  |  |  |  |  |
| COc1cc(/C=C2\N=C(c3ccccc3)N(c3nc4c(OC)ccc(OC)c4s3)C2=O)cc(OC)c1OC | > 100 µM |  | > 100 µM | > 100 µM | > 100 µM | > 100 µM | > 100 µM | > 100 µM | > 100 µM | > 100 µM |  |  |  |  |  |  |  |  |
| O=C1C=C(Br)c2c(Br)sc(Br)c21 | > 20.6 µM | 98.8 µM | 39.7 µM | 12.6 µM | 17 µM | > 100 µM | 10.3 µM | > 53.8 µM | 28.1 µM | > 19.6 µM |  |  |  |  |  |  |  |  |
| COC(OC)C1OC(CO)C(n2ccc(N)nc2=O)C1O (stereo not given) | > 100 µM | > 100 µM | > 100 µM | > 100 µM | > 100 µM | > 100 µM | > 100 µM | > 100 µM | > 100 µM | > 100 µM |  |  |  |  |  |  |  |  |
| O=c1c2cc(I)ccc2nc(Sc2ncccc2[N+](=O)[O-])n1Cc1ccccc1 | > 100 µM | > 100 µM | > 100 µM | > 100 µM | 64 µM | > 100 µM | > 100 µM | > 100 µM | > 100 µM | > 100 µM |  |  |  |  |  |  |  |  |
| CN(C)CCNC(=O)c1cccc2nc3c(nc12)-c1ccccc1C3=O | 39.4 µM | 39.6 µM | 31 µM | 34.6 µM | 29.7 µM | 33.6 µM | 39.1 µM | 39.3 µM | 38.1 µM | 30.2 µM |  |  |  |  |  |  |  |  |
| O=c1[nH]nc(-c2ccccc2)n1/N=C/c1c(O)ccc2ccccc12 | > 100 µM |  | 93.6 µM | > 100 µM | > 100 µM | > 100 µM | > 100 µM | > 100 µM | > 100 µM | > 100 µM |  |  |  |  |  |  |  |  |
| CNC(=O)c1cc(NC(=O)N(CCC#N)CCN(C(=O)N[C@@H](Cc2ccccc2)C(=O)N[C@@H](CC(C)C)C(=O)NC)c2ccccc2)ccc1OC | > 100 µM | > 100 µM | > 100 µM | 51 µM | > 100 µM | > 88.3 µM | > 100 µM | > 100 µM |  | > 100 µM |  |  |  |  |  |  |  |  |
| CCc1ccc2[nH]c(O)c(-c3[nH]c4ccccc4c3N=O)c2c1 | 89.9 µM | 62.5 µM | 28.9 µM | 28.5 µM | 20.6 µM | > 100 µM | 12 µM | 48.8 µM | 8.52 µM | 18.9 µM |  |  |  |  |  |  |  |  |
| Oc1ccc(SCc2cc(O)c(O)c(O)c2)cc1 | > 100 µM | 52.1 µM | > 100 µM | > 100 µM | 85.9 µM | 78.6 µM | > 100 µM | 58.5 µM |  | > 100 µM |  |  |  |  |  |  |  |  |
| CSc1c(C#N)c(=O)[nH]c2n[nH]c(C)c12 | > 100 µM | > 100 µM | > 100 µM | > 100 µM | > 100 µM | > 100 µM | > 100 µM | > 100 µM | > 100 µM | > 100 µM |  |  |  |  |  |  |  |  |
| CC(C)(C)C1(COC(=O)c2ccc(N)cc2)COC1 | > 100 µM | > 100 µM | > 100 µM | > 100 µM | > 100 µM | > 100 µM | > 100 µM | > 100 µM | > 100 µM | > 100 µM |  |  |  |  |  |  |  |  |
| CCOC(=O)/C=C(\C(=O)OCC)n1ccc(N)nc1=O | > 100 µM | > 100 µM | > 100 µM | > 100 µM | > 100 µM | > 100 µM | > 100 µM | > 100 µM | > 100 µM | > 100 µM |  |  |  |  |  |  |  |  |
| C=CCSC1=N/C(=C\c2ccccc2)C(=O)N1CC=C | > 100 µM | > 100 µM | 89.2 µM | > 82.5 µM | > 100 µM | > 62.3 µM | > 100 µM | > 100 µM | > 100 µM | > 100 µM |  |  |  |  |  |  |  |  |
| O=C(c1ccccc1)c1ccc2nc(-c3c(Cl)c(Cl)c(Cl)c(Cl)c3C(=O)N/N=C/c3ccccc3)[nH]c2c1 | > 100 µM | 79.8 µM | 92.6 µM | 85 µM | > 100 µM | 63 µM | > 100 µM | 80 µM |  | 73.7 µM |  |  |  |  |  |  |  |  |
| Cc1nc2ccc(S(=O)(=O)O)cc2c(=O)n1-c1ccc(C(=O)NN2C(=O)C(Cl)C2c2ccccc2O)cc1 (stereo not given) | > 100 µM | > 100 µM | > 100 µM | > 100 µM | > 100 µM | > 100 µM | > 100 µM | > 100 µM |  | > 100 µM |  |  |  |  |  |  |  |  |
| CC(C)c1ccc(/C=C2\CSCC3=C2NC(=S)NC3c2ccc(C(C)C)cc2)cc1 (stereo not given) | > 100 µM | > 100 µM |  | > 100 µM | > 100 µM | > 100 µM | > 100 µM | > 100 µM | > 100 µM | > 100 µM |  |  |  |  |  |  |  |  |
| COc1ccc(N=N/C(=N/NC(=O)c2ccccc2)c2ccc(N(CCC#N)CCC#N)cc2C)cc1 |  | > 100 µM | > 100 µM | > 100 µM | > 100 µM | > 100 µM | > 100 µM | > 100 µM | > 100 µM | > 100 µM |  |  |  |  |  |  |  |  |
| O=C(CCCCCCCCC(=O)N1C(=O)CC(=O)N(c2cccc(Cl)c2)C1=S)N1C(=O)CC(=O)N(c2cccc(Cl)c2)C1=S |  |  | > 100 µM | > 100 µM | > 100 µM | > 100 µM | > 100 µM | 96.9 µM | > 100 µM | > 100 µM |  |  |  |  |  |  |  |  |
| O=C1COc2ccc([N+](=O)[O-])cc2C(=O)C1 | > 10 µM | > 10 µM |  | > 10 µM | > 10 µM | > 10 µM | > 10 µM | > 10 µM | > 10 µM | > 10 µM |  |  |  |  |  |  |  |  |
| COc1cc(CC2c3cc(OC)c(OC)cc3CCN2C)c(Oc2cc3c(cc2OC)-c2c(O)c(OC)cc4c2C(C3)N(C)CC4)cc1OC (stereo not given) | > 100 µM | 66.2 µM | 31.3 µM | 37.4 µM | 32.4 µM |  | 36.1 µM | 43.9 µM | 31 µM | 84.4 µM |  |  |  |  |  |  |  |  |
| COC(=O)/C=C1\CCC(C)(C(=O)NS(=O)(=O)c2ccc(C)cc2)C1(C)C (stereo not given) | > 100 µM | > 100 µM |  | > 100 µM | > 100 µM | > 100 µM | > 100 µM | > 100 µM | > 100 µM | > 100 µM |  |  |  |  |  |  |  |  |
| C(=C\c1ccccc1)/C=N/c1nc2cc3sc(/N=C/C=C/c4ccccc4)nc3cc2s1 | > 100 µM |  | > 100 µM | > 100 µM | > 100 µM | > 100 µM | > 100 µM | > 100 µM | > 100 µM | > 100 µM |  |  |  |  |  |  |  |  |
| Cc1cc(-c2nc3ccccc3s2)ccc1NC(=O)[C@H](C)N | 29 µM | 13.4 µM | 26.1 µM | 33.2 µM | 31.2 µM |  | 19.1 µM | 38.5 µM | 23.9 µM | 23.7 µM |  |  |  |  |  |  |  |  |
| Cc1c2oc3c(C)ccc(C(=O)NC4C(=O)NC(C(C)O)C(=O)N5CCCC5C(=O)N(C)CC(=O)N(C)C(C(C)C)C(=O)OC4C)c3nc-2c(C(=O)NC2C(=O)NC(C(C)O)C(=O)N3CCCC3C(=O)N(C)CC(=O)N(C)C(C(C)C)C(=O)OC2C)c(N)c1=O (stereo not given) (I: TTP[Sar][NMeV] / II: TTP[Sar][NMeV]; ester I:1-I:C, II:1-II:C; linker I:N-II:N via Actinocin(9to1); configuration not given here) | > 100 µM | 0.803 µM | 1.95 µM | 3.2 µM | 1.03 µM | 1.55 µM | 19.6 µM | > 100 µM | > 30.3 µM |  |  |  |  |  |  |  |  |  |
